{"source": "patent US20100267561A1", "about": "“HERBICIDAL PYRIDAZINONE DERIVATIVES” (priority 2007, published 2010)", "type_in_all_cases": "in vivo", "key": {"[1]": {"system": "johnsongrass (Sorghum halepense)", "assay": "Test B pre-/postemergence plant response", "details": "Sorghum halepense, read-out: Plant response rating, Johnsongrass; for pest or weed control at 31 g/ha: 31 g ai/ha; for pest or weed control at 62 g/ha: 62 g ai/ha", "in_short": "(§1)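 Visual scoring from 0 (no effect) to 100 (complete control) against untreated controls was done 13 to 15 days after greenhouse treatment. Chemicals were formulated in a surfactant-containing non-phytotoxic solvent and applied to soil preemergence or to 1- to 4-leaf (2-18 cm) plants postemergence.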"}, "[2]": {"system": "lambsquarters (Chenopodium album)", "assay": "Test B pre-/postemergence plant response", "details": "for Lambsquarters plant response rating: 8 g ai/ha; for pest or weed control at 16 g/ha / pest or weed control at 31 g/ha / pest or weed control at 62 g/ha: Chenopodium album, read-out: Plant response rating, Lambsquarters; for pest or weed control at 16 g/ha: 16 g ai/ha; for pest or weed control at 31 g/ha: 31 g ai/ha; for pest or weed control at 62 g/ha: 62 g ai/ha", "in_short": "as §1"}, "[3]": {"system": "large crabgrass (Digitaria sanguinalis)", "assay": "Test B pre-/postemergence plant response", "details": "for Crabgrass, Large plant response rating: 8 g ai/ha; for pest or weed control at 16 g/ha / pest or weed control at 31 g/ha / pest or weed control at 62 g/ha: Digitaria sanguinalis, read-out: Plant response rating, Crabgrass, Large; for pest or weed control at 16 g/ha: 16 g ai/ha; for pest or weed control at 31 g/ha: 31 g ai/ha; for pest or weed control at 62 g/ha: 62 g ai/ha", "in_short": "as §1"}, "[4]": {"system": "wheat (Triticum aestivum)", "assay": "Test B pre-/postemergence plant response", "details": "for Wheat plant response rating: 8 g ai/ha; for plant injury at 16 g/ha: 16 g ai/ha; for plant injury at 62 g/ha: 62 g ai/ha", "in_short": "as §1"}, "wild oat (Avena fatua)": {"system": "wild oat (Avena fatua)", "assay": "Test B pre-/postemergence plant response", "details": "for pest or weed control at 16 g/ha / pest or weed control at 31 g/ha / pest or weed control at 62 g/ha: Avena fatua, read-out: Plant response rating, Oat, Wild; for pest or weed control at 16 g/ha: 16 g ai/ha; for pest or weed control at 31 g/ha: 31 g ai/ha; for pest or weed control at 62 g/ha: 62 g ai/ha", "in_short": "as §1"}, "[5]": {"system": "yellow nutsedge (Cyperus esculentus)", "assay": "Test B pre-/postemergence plant response", "details": "for Nutsedge, Yellow plant response rating: 8 g ai/ha; for pest or weed control at 16 g/ha / pest or weed control at 31 g/ha / pest or weed control at 62 g/ha: Cyperus, read-out: Plant response rating, Nutsedge, Yellow; for pest or weed control at 16 g/ha: 16 g ai/ha; for pest or weed control at 31 g/ha: 31 g ai/ha; for pest or weed control at 62 g/ha: 62 g ai/ha", "in_short": "as §1"}, "[6]": {"system": "windgrass (Apera spica-venti)", "assay": "Test B postemergence plant response", "details": "for Plant response rating, Windgrass: Postemergence", "in_short": "(§2)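 Visual injury score from 0 (none) to 100 (complete control) versus controls, taken 13 to 15 days after treatment in the greenhouse; chemicals applied postemergence, as formulated, to plants of 1- to 4-leaf stage (2 to 18 cm tall); dash denotes no test result.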"}, "[7]": {"system": "winter barley (Hordeum vulgare)", "assay": "Test B postemergence plant response", "details": "for Plant response rating, Barley: Postemergence, scale 0 to 100, 0 no effect, 100 complete control", "in_short": "as §2"}, "[8]": {"details": "post-emergence, Postemergence, scale 0 to 100, 0 no effect, 100 complete control"}, "[9]": {"details": "pre-emergence, Preemergence, 0 to 100 scale, 0 no effect, 100 complete control"}, "[10]": {"details": "pre-emergence, Preemergence, scale 0 to 100"}, "[11]": {"details": "post-emergence, Postemergence, scale 0 to 100"}, "[12]": {"details": "pre-emergence, Preemergence, scale 0 to 100 (0 no effect, 100 complete control)"}, "[13]": {"details": "8 g ai/ha, postemergence, 0-100 scale"}}, "note": "Where two headings read alike, the source gives them in different places.", "data": [{"smiles": "CCc1c(C)c(-c2ccc(Cl)cc2)nn1-c1c(O)cnn(C)c1=O", "note": "[Compound 26, 4-[3-(4-chlorophenyl)-5-ethyl-4-methyl-1H-pyrazol-1-yl]-5-hydroxy-2-methyl-3(2H)-pyridazinone]", "values": [{"measurement": "pest or weed control at 31 g/ha", "setting": "[1]; [8]", "value": 20, "unit": "%"}, {"measurement": "pest or weed control at 62 g/ha", "setting": "[1]; [8]", "value": 20, "unit": "%"}, {"measurement": "pest or weed control at 16 g/ha", "setting": "[1]; pre-emergence, Preemergence, 16 g ai/ha, scale 0 to 100 (0 no effect, 100 complete control)", "value": 0, "unit": "%"}, {"measurement": "pest or weed control at 31 g/ha", "setting": "[1]; [9]", "value": 0, "unit": "%"}, {"measurement": "pest or weed control at 62 g/ha", "setting": "[1]; [10]", "value": 50, "unit": "%"}, {"measurement": "Lambsquarters plant response rating", "setting": "[2]; postemergence, 0-100 scale", "value": 0}, {"measurement": "pest or weed control at 16 g/ha", "setting": "[2]; [11]", "value": 0, "unit": "%"}, {"measurement": "pest or weed control at 31 g/ha", "setting": "[2]; [8]", "value": 0, "unit": "%"}, {"measurement": "pest or weed control at 62 g/ha", "setting": "[2]; [8]", "value": 0, "unit": "%"}, {"measurement": "pest or weed control at 16 g/ha", "setting": "[2]; [12]", "value": 0, "unit": "%"}, {"measurement": "pest or weed control at 31 g/ha", "setting": "[2]; [9]", "value": 0, "unit": "%"}, {"measurement": "pest or weed control at 62 g/ha", "setting": "[2]; [10]", "value": 0, "unit": "%"}, {"measurement": "Lambsquarters plant response rating", "setting": "[2]; Preemergence, scale 0 to 100", "value": 0}, {"measurement": "Crabgrass, Large plant response rating", "setting": "[3]; postemergence, 0-100 scale", "value": 45}, {"measurement": "pest or weed control at 16 g/ha", "setting": "[3]; [11]", "value": 60, "unit": "%"}, {"measurement": "pest or weed control at 31 g/ha", "setting": "[3]; [8]", "value": 80, "unit": "%"}, {"measurement": "pest or weed control at 62 g/ha", "setting": "[3]; [8]", "value": 80, "unit": "%"}, {"measurement": "pest or weed control at 16 g/ha", "setting": "[3]; [12]", "value": 65, "unit": "%"}, {"measurement": "pest or weed control at 31 g/ha", "setting": "[3]; [9]", "value": 70, "unit": "%"}, {"measurement": "pest or weed control at 62 g/ha", "setting": "[3]; [10]", "value": 95, "unit": "%"}, {"measurement": "Crabgrass, Large plant response rating", "setting": "[3]; Preemergence, scale 0 to 100", "value": 0}, {"measurement": "Wheat plant response rating", "setting": "[4]; postemergence, 0-100 scale", "value": 0}, {"measurement": "Wheat plant response rating", "setting": "[4]; Preemergence, scale 0 to 100", "value": 0}, {"measurement": "plant injury at 16 g/ha", "setting": "[4]; Triticum aestivum, post-emergence, Postemergence, scale 0 to 100, read-out: Plant response rating, Wheat", "value": 0, "unit": "%"}, {"measurement": "plant injury at 62 g/ha", "setting": "[4]; Triticum aestivum, post-emergence, Postemergence, scale 0 to 100, 0 no effect, 100 complete control, read-out: Plant response rating, Wheat", "value": 5, "unit": "%"}, {"measurement": "plant injury at 16 g/ha", "setting": "[4]; Triticum aestivum, pre-emergence, Preemergence, scale 0 to 100 (0 no effect, 100 complete control), read-out: Plant response rating, Wheat", "value": 0, "unit": "%"}, {"measurement": "plant injury at 31 g/ha", "setting": "[4]; Triticum aestivum, pre-emergence, Preemergence, 31 g ai/ha, 0 to 100 scale, 0 no effect, 100 complete control, read-out: Plant response rating, Wheat", "value": 0, "unit": "%"}, {"measurement": "plant injury at 62 g/ha", "setting": "[4]; Triticum aestivum, pre-emergence, Preemergence, scale 0 to 100, read-out: Plant response rating, Wheat", "value": 0, "unit": "%"}, {"measurement": "Oat, Wild plant response rating", "setting": "wild oat (Avena fatua); [13]", "value": 85}, {"measurement": "pest or weed control at 16 g/ha", "setting": "wild oat (Avena fatua); [11]", "value": 90, "unit": "%"}, {"measurement": "pest or weed control at 31 g/ha", "setting": "wild oat (Avena fatua); [8]", "value": 90, "unit": "%"}, {"measurement": "pest or weed control at 62 g/ha", "setting": "wild oat (Avena fatua); [8]", "value": 100, "unit": "%"}, {"measurement": "pest or weed control at 16 g/ha", "setting": "wild oat (Avena fatua); [12]", "value": 80, "unit": "%"}, {"measurement": "pest or weed control at 31 g/ha", "setting": "wild oat (Avena fatua); [9]", "value": 85, "unit": "%"}, {"measurement": "pest or weed control at 62 g/ha", "setting": "wild oat (Avena fatua); [10]", "value": 85, "unit": "%"}, {"measurement": "Nutsedge, Yellow plant response rating", "setting": "[5]; postemergence, 0-100 scale", "value": 0}, {"measurement": "pest or weed control at 16 g/ha", "setting": "[5]; [11]", "value": 0, "unit": "%"}, {"measurement": "pest or weed control at 31 g/ha", "setting": "[5]; [8]", "value": 0, "unit": "%"}, {"measurement": "pest or weed control at 62 g/ha", "setting": "[5]; [8]", "value": 0, "unit": "%"}, {"measurement": "pest or weed control at 16 g/ha", "setting": "[5]; [12]", "value": 0, "unit": "%"}, {"measurement": "pest or weed control at 31 g/ha", "setting": "[5]; [9]", "value": 0, "unit": "%"}, {"measurement": "pest or weed control at 62 g/ha", "setting": "[5]; [10]", "value": 0, "unit": "%"}, {"measurement": "Nutsedge, Yellow plant response rating", "setting": "[5]; Preemergence, scale 0 to 100", "value": 0}, {"measurement": "Windgrass plant response rating", "setting": "[6]; [13]", "value": 50}, {"measurement": "Plant response rating, Windgrass", "setting": "[6]; 16 g ai/ha, scale 0 to 100", "value": 80}, {"measurement": "Plant response rating, Windgrass", "setting": "[6]; 62 g ai/ha, scale 0 to 100, 0 no effect, 100 complete control", "value": 95}, {"measurement": "Barley plant response rating", "setting": "[7]; [13]", "value": 0}, {"measurement": "Plant response rating, Barley", "setting": "[7]; 16 g ai/ha", "value": 0}, {"measurement": "Plant response rating, Barley", "setting": "[7]; 31 g ai/ha", "value": 0}, {"measurement": "Plant response rating, Barley", "setting": "[7]; 62 g ai/ha", "value": 0}]}]}
